Reference: patent US8614341B2, “Amorphous silibinin for the treatment of viral hepatitis” (Euromed S.A., priority 2009, dated 2013)

Tests used:
[1] = Storage stability of the amorphous state (XRPD assessment); assay type: physicochemical; settings: single polyethylene bag, 2 months
Protocol: For quantitative XRPD assessment ZnO (XRPD spectrum FIG. 3A) was used as internal standard. Three characteristics peaks of crystalline sylibinin (2-theta: 20.7, 22.3 and 24.5°) were chosen for the quantitative determination of the crystalline form and peaks at 2-theta: 56.6 and 62.8° of the internal standard (IS, ZnO) were used as reference as reported in FIG. 3B.
XRPD spectra were obtained using X'Pert diffractometer from PANalytical, using the following parameters for acquisition and data processing:
Silibinin samples obtained according to the present invention were stored at 4±2° C. at 60% R.H., 25±2° C. at 60±5% R.H. and 40±2° C. at 60±5% R.H., in a single polyethylene bag for 2 months. After this time the samples were analyzed by XRPD.

[2] = Solubility (HPLC - Ph. Eur. 01/2007:2071) after 30 min; assay type: physicochemical
Protocol: A “silibinin release rate of 80% or greater” means that the amorphous silibinin is at least 80% soluble in aqueous solution (standard according to Ph. Eur.).
Several lots of silibinin manufactured according to the method of the invention, including steps L and M, were analyzed using the XRPD method described in example 2.
Solubility of this product (HPLC—Ph. Eur. 01/2007:2071) after 30 min. is higher than 80%. Conversely the silibinin obtained according to the method of the invention without performing steps L and M, though of high chemical purity is mainly crystalline (typically more than 70% crystalline).
Solubility of this product (HPLC—Ph. Eur. 01/2007:2071) after 30 min. is lower than 80%.

Compound	stability of amorphous state (XRPD) ([1]; 4±2° C. at 60% R.H.)	stability of amorphous state (XRPD) ([1]; 25±2° C. at 60±5% R.H.)	stability of amorphous state (XRPD) ([1]; 40±2° C. at 60±5% R.H.)	Solubility (HPLC - Ph. Eur. 01/2007:2071) [2]
COc1cc(C2Oc3cc(C4Oc5cc(O)cc(O)c5C(=O)C4O)ccc3OC2CO)ccc1O (stereo not drawn) [amorphous silibinin, silibinin]	stable	stable	stable	higher than 80%
COc1cc(C2Oc3cc(C4Oc5cc(O)cc(O)c5C(=O)C4O)ccc3OC2CO)ccc1O (stereo not drawn) [amorphous silibinin samples, containing about 10% of crystal] [reference compound]		extended crystallization		
COc1cc(C2Oc3cc(C4Oc5cc(O)cc(O)c5C(=O)C4O)ccc3OC2CO)ccc1O (stereo not drawn) [silibinin obtained without performing steps L and M] [reference compound]				lower than 80%
